Patent US9029385B2, “Compositions and methods for treating fibroproliferative disorders” (priority 2007, dated 2015)

Key:
Format in all cases: in vivo
glutathione (GSH) = assay: Bleomycin-induced pulmonary fibrosis mouse model: total glutathione in bronchoalveolar lavage fluid; settings: mice, BLM IT; NAC 20 mg/kg IP daily; FIG. 8
Experimental: (§1) FIG. 8 illustrates total glutathione levels in bronchoalveolar lavage fluid (BALF) in different experimental groups, as indicated. Data are representative of 4 independent experiments, and presented as mean±SD (n=5). The composition including pentoxifylline (PTX) and N-acetyl-cysteine (NAC) was assessed in vivo in a mouse model using an experimental design in which a pulmonary fibrosis was generated using bleomycin injury of lung. Bleomycin (BLM) is an effective antineoplastic drug that binds to and damages DNA of tumour cells. However, administration of BLM may result in lung inflammation that can progress to fibrosis. This side effect is due mostly to augmented concentration of reactive oxygen species, decrease in nicotinamide adenine dinucleotide (NAD) and adenosine triphosphate (ATP), and overproduction of mature collagen fibrils. Because BLM-induced lung fibrosis is easily reproduced in different species of mammals, experimental models using the drug have been adopted with the goal of investigating the efficacy of the current invention. [table] […] In addition, the lung weights were recorded, photographs of the lungs were taken and tissue samples processed either for biochemical analysis of hydroxyproline (immediately frozen on dry ice) or further morphological analysis (immersed in fixative solution of 10% neutral-buffered formalin). […]

TNF-α = assay: Bleomycin-induced pulmonary fibrosis mouse model: TNF-α in bronchoalveolar lavage fluid by ELISA; settings: mice, day 5 post bleomycin instillation, PTX 10 mg/kg, NAC 20 mg/kg IP daily, FIG. 7
Experimental: as §1, with “Difference of TNF-α at day 5 post bleomycin instillation is shown. Values” for “FIG. 8 illustrates total glutathione levels in bronchoalveolar lavage fluid (BALF) in different experimental groups, as indicated. Data”, “means±SD; 5 mice per group.” for “representative of 4 independent experiments, and presented as mean±SD (n=5).”, “[table] Mice (under anesthesia) received a single intratracheal dose of either saline (control) or bleomycin (BLM).” for “[table]”

[1] = tested on: bleomycin-induced pulmonary fibrosis; assay: Bleomycin-induced pulmonary fibrosis mouse model: wet lung weight; settings: mice, BLM 0.06 U IT; IP daily for 14 days (PTX 10 mg/kg, NAC 20 mg/kg); vs BLM + saline; FIG. 3
Experimental: The composition including pentoxifylline (PTX) and N-acetyl-cysteine (NAC) was assessed in vivo in a mouse model using an experimental design in which a pulmonary fibrosis was generated using bleomycin injury of lung. Bleomycin (BLM) is an effective antineoplastic drug that binds to and damages DNA of tumour cells. However, administration of BLM may result in lung inflammation that can progress to fibrosis. This side effect is due mostly to augmented concentration of reactive oxygen species, decrease in nicotinamide adenine dinucleotide (NAD) and adenosine triphosphate (ATP), and overproduction of mature collagen fibrils. Because BLM-induced lung fibrosis is easily reproduced in different species of mammals, experimental models using the drug have been adopted with the goal of investigating the efficacy of the current invention. […] In this example, the effects of PTX and NAC in combination were studied in comparison to PTX and NAC individually. […] In addition, the lung weights were recorded, photographs of the lungs were taken and tissue samples processed either for biochemical analysis of hydroxyproline (immediately frozen on dry ice) or further morphological analysis (immersed in fixative solution of 10% neutral-buffered formalin).

[2] = tested on: bleomycin-induced pulmonary fibrosis; assay: Bleomycin-induced pulmonary fibrosis mouse model: lung histopathology and semi-quantitative lesion score (Masson trichrome); settings: mice, fourteen days after intratracheal bleomycin; PTX 10 mg/kg and/or NAC 20 mg/kg IP daily; vs untreated BLM animals
Source text: FIG. 4 illustrates representative photomicrographs of lung histopathology. Normal lung histology is shown in panel A (Group I-saline). […] Collagen is stained with Masson trichrome (light blue color). Original ×10 and ×40 magnifications are shown. FIG. 5 illustrates the effect of pentoxifylline and N-acetyl-cysteine on histological lesions scores of the extent and severity of fibrosis in the experimental groups, as indicated. Data are representative of 5 independent experiments, presented as mean±SD (n=4). The composition including pentoxifylline (PTX) and N-acetyl-cysteine (NAC) was assessed in vivo in a mouse model using an experimental design in which a pulmonary fibrosis was generated using bleomycin injury of lung. Bleomycin (BLM) is an effective antineoplastic drug that binds to and damages DNA of tumour cells. However, administration of BLM may result in lung inflammation that can progress to fibrosis. […] In addition, the lung weights were recorded, photographs of the lungs were taken and tissue samples processed either for biochemical analysis of hydroxyproline (immediately frozen on dry ice) or further morphological analysis (immersed in fixative solution of 10% neutral-buffered formalin).

Row | Compound | total glutathione (GSH) level in BALF (glutathione (GSH)) | BLM-induced increase in TNF-α level in BALF (TNF-α) | lung weight [1] | anti-fibrotic effect seen in lung histology [2]
1 | CC(=O)N[C@@H](CS)C(=O)O [NAC, N-acetyl-L-cysteine] | GSH levels can indeed be supplemented | significantly decreased | lower lung weights were observed but statistical significance was not reached | marked anti-fibrotic effect
2 | CC(=O)CCCCn1c(=O)c2c(ncn2C)n(C)c1=O [PTX, pentoxifylline] | – | significantly decreased | lower lung weights were observed but statistical significance was not reached | –
